# Data taken from US20210380606A1, “5-AZAINDAZOLE DERIVATIVES AS ADENOSINE RECEPTOR ANTAGONISTS” (Merck Patent GmbH, priority 2018, published 2021).
# pIC50: −log10 of the molar value. Read-outs that look alike come from different tables or passages of the source.
# Experiments:
# [1] = target: T1, human A2A receptors (Homo sapiens, UniProt P29274); experiment: Functional human A2A receptor activity, recombinant HEK293 cells, cAMP (HTRF); type: cell-based; conditions: read-out: A2A (Category)
# T1 construct: expressed in transfected cells; host or cells: HEK293
# T1 sequence (P29274 whole entry): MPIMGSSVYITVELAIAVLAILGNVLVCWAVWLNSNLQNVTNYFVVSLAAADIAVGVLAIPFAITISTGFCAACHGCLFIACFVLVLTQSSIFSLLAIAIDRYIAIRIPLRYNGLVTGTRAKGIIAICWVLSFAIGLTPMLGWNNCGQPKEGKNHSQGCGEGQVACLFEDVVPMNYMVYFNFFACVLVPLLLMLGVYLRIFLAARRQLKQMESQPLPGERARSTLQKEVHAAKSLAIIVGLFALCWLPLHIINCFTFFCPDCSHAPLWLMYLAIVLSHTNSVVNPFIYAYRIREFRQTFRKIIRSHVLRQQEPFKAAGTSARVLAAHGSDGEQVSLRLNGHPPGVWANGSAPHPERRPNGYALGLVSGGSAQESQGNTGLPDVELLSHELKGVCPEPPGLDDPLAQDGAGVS
# Protocol: (§1) The functional activities of human A2A and A2B receptors were determined by quantification of cAMP, being the second messenger for adenosine receptors.
# (§2) After a 15 min incubation, HTRF reagents (cAMP dynamic 2, Cis Bio) were added and the cellular cAMP levels were determined using the ENVISION (Perkin Elmer) plate reader.
# [2] = target: T2, human A2B receptors (Homo sapiens, UniProt P29275); experiment: Functional human A2B receptor activity, recombinant HEK293 cells, cAMP (HTRF); type: cell-based; conditions: read-out: A2B (Category)
# T2 construct: expressed in transfected cells; host or cells: HEK293
# T2 sequence (P29275 1-332): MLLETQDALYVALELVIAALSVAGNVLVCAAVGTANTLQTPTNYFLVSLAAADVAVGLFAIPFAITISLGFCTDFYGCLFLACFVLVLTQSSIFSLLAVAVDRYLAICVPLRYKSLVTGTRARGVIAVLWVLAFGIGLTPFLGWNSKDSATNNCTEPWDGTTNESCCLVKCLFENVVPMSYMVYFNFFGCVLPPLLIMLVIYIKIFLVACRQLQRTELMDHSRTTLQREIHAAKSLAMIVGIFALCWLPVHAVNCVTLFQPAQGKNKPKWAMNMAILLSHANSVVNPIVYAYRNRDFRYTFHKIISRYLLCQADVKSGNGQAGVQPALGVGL
# Protocol: as §1, §2
# [3] = recombinant HEK293 cells expressing human A2A receptor, agonist NECA, cAMP HTRF, 15 min incubation
# [4] = recombinant HEK293 cells expressing human A2B receptor, agonist NECA, cAMP HTRF, 15 min incubation
SMILES,pIC50 [1],pIC50 [2],"pIC50 [1, 3]","pIC50 [2, 4]"
"CS(=O)(=O)Cn1nc(-c2coc3ccccc23)c2cnc(C(=O)N3CCC(O)CC3)cc21 [Compound 36, (3-Benzofuran-3-yl-1-methanesulfonylmethyl-1H-pyrazolo[4,3-c]pyridin-6-yl)-(4-hydroxy-piperidin-1-yl)-methanone]",> 7.00,> 7.00,–,–
"CS(=O)(=O)Cn1nc(-c2cnn3ccccc23)c2cnc(C(=O)N3CC4CCC(C3)O4)cc21 [Compound 108, (1-Methanesulfonylmethyl-3-pyrazolo[1,5-a]pyridine-3-yl-1H-pyrazolo[4,3-c]pyridine-6-yl)-(8-oxa-3-aza-bicyclo[3.2.1]oct-3-yl)-methanone]",> 7.00,> 6.00,–,–
"O=C(c1cc2c(cn1)c(-c1cnc3c(F)cc(F)cn13)nn2CC(F)(F)F)N1CCCCCC1 [Compound 60, Azepan-1-yl-[3-(6,8-difluoro-imidazo[1,2-a]pyridin-3-yl)-1-(2,2,2-trifluoro-ethyl)-1H-pyrazolo[4,3-c]pyridin-6-yl]-methanone]",> 7.00,> 7.00,–,–
"COCC1CCCN1C(=O)c1cc2c(cn1)c(-c1coc3ccccc13)nn2CC(F)(F)F (stereo not shown) [Compound 215, [3-Benzofuran-3-yl-1-(2,2,2-trifluoro-ethyl)-1H-pyrazolo[4,3-c]pyridin-6-yl]-(2-methoxymethyl-pyrrolidin-1-yl)-methanone]",> 7.00,> 6.00,–,–
"CC1(O)C2CCC1CN(C(=O)c1cc3c(cn1)c(-c1cnc4c(F)cc(F)cn14)nn3CC(F)(F)F)C2 (stereo not drawn) [Compound 162, [3-(6,8-Difluoro-imidazo[1,2-a]pyridin-3-yl)-1-(2,2,2-trifluoro-ethyl)-1H-pyrazolo[4,3-c]pyridin-6-yl]-(8-endo-hydroxy-8-exo-methyl-3-aza-bicyclo[3.2.1]oct-3-yl)-methanone]",> 7.00,> 6.00,–,–
"O=C(c1cc2c(cn1)c(-c1cnc3ncc(F)cn13)nn2CC(F)(F)F)N1CCCCCC1 [Compound 50, Azepan-1-yl-[3-(6-fluoro-imidazo[1,2-a]pyrimidin-3-yl)-1-(2,2,2-trifluoro-ethyl)-1H-pyrazolo[4,3-c]pyridin-6-yl]-methanone]",> 7.00,> 6.00,–,–
"CCCn1nc(-c2coc3ccccc23)c2cnc(C(=O)N3[C@@H]4CC[C@H]3C[C@@H](O)C4)cc21 [Compound 222, (3-Benzofuran-3-yl-1-propyl-1H-pyrazolo[4,3-c]pyridin-6-yl)-(3-endo-hydroxy-8-aza-bicyclo[3.2.1]oct-8-yl)-methanone]",> 7.00,> 6.00,–,–
"O=C(c1cc2c(cn1)c(-c1coc3ccccc13)nn2CC(F)(F)F)N1CCC(F)CC1 [Compound 216, [3-Benzofuran-3-yl-1-(2,2,2-trifluoro-ethyl)-1H-pyrazolo[4,3-c]pyridin-6-yl]-(4-fluoro-piperidin-1-yl)-methanone]",> 7.00,> 6.00,–,–
"CC(C)C1CC(O)CCN1C(=O)c1cc2c(cn1)c(-c1cnc3c(F)cc(F)cn13)nn2CC(F)(F)F (stereo not shown) [Compound 141, [3-(6,8-Difluoro-imidazo[1,2-a]pyridin-3-yl)-1-(2,2,2-trifluoro-ethyl)-1H-pyrazolo[4,3-c]pyridin-6-yl]-(4-hydroxy-2-isopropyl-piperidin-1-yl)-methanone]",> 7.00,> 6.00,–,–
"O=C(c1cc2c(cn1)c(-c1cnc3c(F)cc(F)cn13)nn2CC(F)(F)F)N1CCCCC(O)C1 (racemic) [Compound 134, [3-(6,8-Difluoro-imidazo[1,2-a]pyridin-3-yl)-1-(2,2,2-trifluoro-ethyl)-1H-pyrazolo[4,3-c]pyridin-6-yl]-(3-hydroxy-azepan-1-yl)-methanone]",> 7.00,> 6.00,–,–
"CS(=O)(=O)Cn1nc(-c2cnc3ccc(F)cn23)c2cnc(C(=O)N3CCCCCC3)cc21 [Compound 20, Azepan-1-yl-[3-(6-fluoro-imidazo[1,2-a]pyridin-3-yl)-1-methanesulfonylmethyl-1H-pyrazolo[4,3-c]pyridin-6-yl]-methanone]",> 7.00,> 7.00,–,–
"N#Cc1ccc2ncc(-c3nn(CC(F)(F)F)c4cc(C(=O)N5CCCOCC5)ncc34)n2c1 [Compound 81, 3-[6-(1,4-Oxazepane-4-carbonyl)-1-(2,2,2-trifluoro-ethyl)-1H-pyrazolo[4,3-c]pyridin-3-yl]-imidazo[1,2-a]pyridine-6-carbonitrile]",> 7.00,> 6.00,–,–
"O=C(c1cc2c(cn1)c(-c1coc3ccccc13)nn2CC(F)F)N1C2CCC1CC(O)C2 (stereo not drawn) [Compound 220, [3-Benzofuran-3-yl-1-(2,2-difluoro-ethyl)-1H-pyrazolo[4,3-c]pyridin-6-yl]-(3-endo-hydroxy-8-exo-methyl-3-aza-bicyclo[3.2.1]oct-3-yl)-methanone]",> 7.00,> 6.00,–,–
"O=C(c1cc2c(cn1)c(-c1cnc3c(F)cc(F)cn13)nn2CC(F)(F)F)N1CC2COCC2C1 (stereo not shown) [Compound 154, [3-(6,8-Difluoro-imidazo[1,2-a]pyridin-3-yl)-1-(2,2,2-trifluoro-ethyl)-1H-pyrazolo[4,3-c]pyridin-6-yl]-(tetrahydro-furo[3,4-c]pyrrol-5-yl)-methanone]",–,–,> 7.00,> 6.00
"O=C(c1cc2c(cn1)c(-c1cnc3ccc(F)cn13)nn2CC(F)(F)F)N1CCCOCC1 [Compound 80, [3-(6-Fluoro-imidazo[1,2-a]pyridin-3-yl)-1-(2,2,2-trifluoro-ethyl)-1H-pyrazolo[4,3-c]pyridin-6-yl]-1,4-oxazepan-4-yl-methanone]",> 7.00,> 6.00,–,–
"O=C(c1cc2c(cn1)c(-c1cnc3c(F)cc(F)cn13)nn2CC(F)(F)F)N1CCOC2CC21 (stereo not shown) [Compound 205, [3-(6,8-Difluoro-imidazo[1,2-a]pyridin-3-yl)-1-(2,2,2-trifluoro-ethyl)-1H-pyrazolo[4,3-c]pyridin-6-yl]-(2-oxa-5-aza-bicyclo[4.1.0]hept-5-yl)-methanone]",> 7.00,> 6.00,–,–
"CC1(O)C2CCC1CN(C(=O)c1cc3c(cn1)c(-c1coc4ccccc14)nn3CS(C)(=O)=O)C2 (stereo not drawn) [Compound 28, (3-Benzofuran-3-yl-1-methanesulfonylmethyl-1H-pyrazolo[4,3-c]pyridin-6-yl)-(8-endo-hydroxy-8-exo-methyl-d3-3-aza-bicyclo[3.2.1]oct-3-yl)-methanone]",–,–,> 7.00,> 7.00
"O=C(c1cc2c(cn1)c(-c1cnc3c(F)cc(F)cn13)nn2CC(F)(F)F)N1CC2COC(C2)C1 (stereo not shown) [Compound 199, [3-(6,8-Difluoro-imidazo[1,2-a]pyridin-3-yl)-1-(2,2,2-trifluoro-ethyl)-1H-pyrazolo[4,3-c]pyridin-6-yl]-(6-oxa-3-aza-bicyclo[3.2.1]oct-3-yl)-methanone]",> 7.00,> 6.00,–,–
"O=C(c1cc2c(cn1)c(-n1cnc3ccccc31)nn2CC(F)(F)F)N1CCCOCC1 [Compound 251, [3-(benzimidazol-1-yl)-1-(2,2,2-trifluoroethyl)pyrazolo[4,3-c]pyridin-6-yl]-(1,4-oxazepan-4-yl)methanone]",> 7.00,> 6.00,–,–
"Cc1ccc2occ(-c3nn(CC(F)(F)F)c4cc(C(=O)N5CCCOCC5)ncc34)c2c1 [Compound 125, [3-(5-methylbenzofuran-3-yl)-1-(2,2,2-trifluoroethyl)pyrazolo[4,3-c]pyridin-6-yl]-(1,4-oxazepan-4-yl)methanone]",> 7.00,> 6.00,–,–
